Experimental data: patent US20070161807A1, “Method for manufacturing optically pure coumaryl amino acids and the novel coumaryl aminoacids thus obtained” (INSERM (INSTITUT NATIONAL DE LA SANT'E ET DE LA RECHERCHE …, priority 2004, published 2007)

Assay: Physicochemical properties: absorption and fluorescence (Table 1)
Conditions: for Abs. (nm): absorption wavelength; for Abs. (nm) / Em. (nm): determined in 95% ethanol; for Em. (nm): emission wavelength

Row | Structure (SMILES) | QY quantum yield | ε (cm^−1 M^−1) extinction coefficient | Abs. (nm) | Em. (nm)
1 | COc1ccc2c(C[C@@H](N)C(=O)O)cc(=O)oc2c1.O=C(O)C(F)(F)F [Example 8, (1R)-1-carboxy-2-(7-methoxy-2-oxo-2H-chromen-4-yl)-ethyl ammonium trifluoroacetate] | 0.15 | 14000 cm⁻¹ M⁻¹ | 323 nm | 386 nm
2 | COc1cc2oc(=O)cc(C[C@H](N)C(=O)O)c2cc1OC.O=C(O)C(F)(F)F [Example 9, (1S)-1-carboxy-2-(6,7-dimethoxy-2-oxo-2H-chromen-4-yl)-ethyl ammonium trifluoroacetate] | 0.60 | 12000 cm⁻¹ M⁻¹ | 345 nm | 445 nm
3 | COc1ccc2c(C[C@H](N)C(=O)O)cc(=O)oc2c1.CS(=O)(=O)O [Example 7, (1S)-1-carboxy-2-(7-methoxy-2-oxo-2H-chromen-4-yl)-ethyl ammonium methanesulfonate] | 0.18 | 12000 cm⁻¹ M⁻¹ | 324 nm | 383 nm
4 | COc1cc(OC)c2c(C[C@H](N)C(=O)O)cc(=O)oc2c1.O=C(O)C(F)(F)F [Example 14, (1S)-1-carboxy-2-(5,7-dimethoxy-2-oxo-2H-chromen-4-yl)-ethyl ammonium trifluoroacetate] | 0.39 | 11500 cm⁻¹ M⁻¹ | 324 nm | 419 nm
5 | COc1ccc2c(CC[C@H](N)C(=O)OCc3ccccc3)cc(=O)oc2c1.O=C(O)C(F)(F)F [Example 17, (1S)-1-benzyloxycarbonyl-3-(7-methoxy-2-oxo-2H-chromen-4-yl)-propyl ammonium trifluoroacetate] | 0.17 | 14600 cm⁻¹ M⁻¹ | 322 nm | 381 nm
6 | COc1ccc2c(CC[C@H](N)C(=O)O)cc(=O)oc2c1.O=C(O)C(F)(F)F [Example 16, (1S)-1-carboxy-3-(7-methoxy-2-oxo-2H-chromen-4-yl)-propyl ammonium trifluoroacetate] | 0.21 | 12500 cm⁻¹ M⁻¹ | 321 nm | 380 nm
7 | COc1cc(O)c2c(C[C@H](N)C(=O)O)cc(=O)oc2c1.O=C(O)C(F)(F)F [Example 12, (1S)-1-carboxy-2-(5-hydroxy, 7-methoxy-2-oxo-2H-chromen-4-yl)-ethyl ammonium trifluoroacetate] | 0.50 | 6800 cm⁻¹ M⁻¹ | 329 nm | 421 nm
8 | N[C@@H](Cc1cc(=O)oc2cc(O)cc(O)c12)C(=O)O.O=C(O)C(F)(F)F [Example 15, (1S)-1-carboxy-2-(5,7-dihydroxy-2-oxo-2H-chromen-4-yl)-ethyl ammonium trifluoroacetate] | – | 11800 cm⁻¹ M⁻¹ | 327 nm | 463 nm
9 | N[C@@H](Cc1ccc(O)cc1)C(=O)O [Y, tyrosine, reference compound] | 0.13 | 1400 cm⁻¹ M⁻¹ | 274 nm | 303 nm
10 | N[C@@H](Cc1cc(=O)oc2cc(O)ccc12)C(=O)O.O=C(O)C(F)(F)F [Example 6, (1S)-1-carboxy-2-(7-hydroxy-2-oxo-2H-chromen-4-yl)-ethyl ammonium trifluoroacetate] | 0.49 | 9000 cm⁻¹ M⁻¹ | 329 nm | 464 nm
11 | N[C@@H](Cc1c[nH]c2ccccc12)C(=O)O [W, tryptophan, reference compound] | 0.12 | 5300 cm⁻¹ M⁻¹ | 278 nm | 352 nm
12 | COc1cc(O)cc2oc(=O)cc(C[C@H](N)C(=O)O)c12.O=C(O)C(F)(F)F [Example 13, (1S)-1-carboxy-2-(7-hydroxy, 5-methoxy-2-oxo-2H-chromen-4-yl)-ethyl ammonium trifluoroacetate] | 0.18 | 12700 cm⁻¹ M⁻¹ | 323 nm | 421 nm
13 | CCOc1ccc2c(C[C@H](N)C(=O)O)cc(=O)oc2c1.O=C(O)C(F)(F)F [Example 11, (1S)-1-carboxy-2-(7-ethoxy-2-oxo-2H-chromen-4-yl)-ethyl ammonium trifluoroacetate] | 0.17 | 13300 cm⁻¹ M⁻¹ | 325 nm | 387 nm
14 | N[C@@H](Cc1cc(=O)oc2cc(O)c(Cl)cc12)C(=O)O.O=C(O)C(F)(F)F [Example 10, (1S)-1-carboxy-2-(6-chloro, 7-hydroxy-2-oxo-2H-chromen-4-yl)-ethyl ammonium trifluoroacetate] | 0.54 | 10300 cm⁻¹ M⁻¹ | 331 nm | 465 nm
